Measurements: patent publication US20100168083A1, “ADAMANTANE DERIVATIVES FOR THE TREATMENT OF THE METABOLIC SYNDROME” (priority 2006, published 2010)

Target: T1, h-11βHSD1 (Homo sapiens, UniProt P28845)
T1 construct: made in house; host or cells: yeast
Assay: 11βHSD1 enzyme assay (SPA)
Type: biochemical
Conditions: extract of yeast transformed with h-11βHSD1; 120 nM 3H-cortisone; 60 min at 30° C.
Protocol: 11βHSD1 Enzyme Assay Materials ^3H-cortisone and anti-rabbit Ig coated scintillation proximity assay (SPA) beads were purchased from Amersham Pharmacia Biotech, β-NADPH was from Sigma and rabbit anti-cortisol antibodies were from Fitzgerald. […] The test compounds were dissolved in DMSO (10 mM). All dilutions were performed in a buffer containing 50 mM TRIS-HCl (Sigma Chemical Co), 4 mM EDTA (Sigma Chemical Co), 0.1% BSA (Sigma Chemical Co), 0.01% Tween-20 (Sigma Chemical Co) and 0.005% bacitracin (Novo Nordisk A/S), pH=7.4. Optiplate 96 wells plates were supplied by Packard. The amount of ^3H-cortisol bound to the SPA beads was measured on TopCount NXT, Packard. […] The reaction was initiated by mixing the different components and was allowed to proceed under shaking for 60 min at 30° C. The reaction was stopped be the addition of 10 fold excess of a stopping buffer containing 500 μM carbenoxolone and 1 μM cortisone. Data was analysed using GraphPad Prism software.

T1 sequence (P28845 whole entry): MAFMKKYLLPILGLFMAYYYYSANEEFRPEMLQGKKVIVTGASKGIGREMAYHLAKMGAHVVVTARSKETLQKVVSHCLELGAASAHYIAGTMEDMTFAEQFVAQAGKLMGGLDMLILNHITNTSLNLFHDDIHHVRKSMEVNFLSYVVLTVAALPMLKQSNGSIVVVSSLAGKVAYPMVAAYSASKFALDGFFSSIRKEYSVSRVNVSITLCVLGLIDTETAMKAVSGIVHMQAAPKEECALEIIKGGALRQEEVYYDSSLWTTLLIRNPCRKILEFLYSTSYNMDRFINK

IC50 | SMILES
835 nM | O=C(N1CCC(COc2ccccn2)CC1)[C@]12C[C@H]3C[C@H](C[C@H](C3)C1)C2 [Example 6]
1320 nM | O=C(O)c1ccc(OCCC2CCN(C(=O)[C@]34C[C@H]5C[C@H](C[C@H](C5)C3)C4)CC2)cc1 [Example 3, 4-{2-[1-(Tricyclo[3.3.1.1.3.7]decanane-1-carbonyl)-piperidin-4-yl]-ethoxy}-benzoic acid]
